Measured values: ChEMBL document CHEMBL3507680, “University of Dundee, Gates Library screen for HepG2 cell viability”

assay: Human HepG2 cell viability assay in 384 well format; type: toxicity, cell-based; parameters: dose 125 nL, time 70.5 hour; cytotoxicity at 70.5 h: concentration not given beside the values; settings: HepG2 cells, read-out: Inhibition

SMILES	cytotoxicity at 70.5 h [%]
CC(C)(C)n1ncc2c1CCCC2NCc1ccc2ncccc2c1 (centres undefined)	-4.24
CC(C)CN1CC(c2nc(C3CC3)n[nH]2)CC1=O (centres undefined)	-9.82
c1ncn(CC2CCCCN2Cc2cn3ccsc3n2)n1 (centres undefined)	5.43
Cc1cc(C(=O)N2CC[C@H]3[C@H]2CCN3S(C)(=O)=O)c(C)o1	0.739
Cc1ccccc1OCCN(C)C(=O)NC(C)c1nncn1C (centres undefined)	-6.52
Cc1cc(NCCN)nc(-c2ccccc2O)n1	35.9
Cc1noc(C)c1CN1Cc2ccnn2CC(C(=O)NCC2CC2)C1 (centres undefined)	-6.51
Fc1cccc(-n2nc(C3CC3)nc2CCn2cnnn2)c1	-3.9
CC1(NC(=O)CC2CCc3ccccc32)CCOCC1 (centres undefined)	-2.46
CC(C)c1nc(CN2CCCC(O)C2)cs1 (centres undefined)	13.1
O=C(c1cc(C2CC2)on1)N1C[C@H]2CC[C@](O)(c3ccc(F)cc3)[C@H]2C1	-0.34
Cn1nccc1-c1ccc2nc(C3CCN(CC4CC4)CC3)nn2c1	-12.2
CN1CCNC(=O)C12CCN(C(=O)c1ccc3[nH]c(=O)[nH]c3c1)CC2	-7.66
CCOCC1CN(C(=O)Cc2ccccn2)Cc2cn(CC)nc21 (centres undefined)	-8.43
CC1CCCN(C(=O)C2CCN(c3snc4ccccc34)CC2)C1 (centres undefined)	5.93
COc1ccc(S(=O)(=O)N2CCn3nc(C)nc3C2)cc1C	-5.13
COc1ccc(C(=O)N2CCC3(CCC(=O)N(C(C)C)C3)CC2)cc1C	-6.63
O=C(C1CCS(=O)(=O)CC1)N1CCC(Cc2ccc(F)cc2)CC1	3.44
Cc1csc(NC(=O)CN2CCCC(Cn3nc(C)nc3C)C2)n1 (centres undefined)	-7.51
CC(O)CN1CCC(CN(C)Cc2cc(C#N)ccc2F)CC1 (centres undefined)	-7.5
Cc1cc(CN2CCN(C(=O)NC(C)c3cccnc3)CC2)on1 (centres undefined)	-11.7
CC(C)(C)n1nc(C(=O)NC2CCN(CC(N)=O)CC2)cc1C1CC1	-11.7
CC(=O)NCc1nc(CC(C)C)nn1-c1cccc(C)c1	-2.35

SMILES	cytotoxicity at 70.5 h [%]
CC(C)c1nnc2n1CCN(C(=O)c1ccc(N(C)C)nn1)C2	2.93
CN(CC1CCCO1)C1CCN(CCc2ccccn2)CC1 (centres undefined)	-6.95
Cc1csc(CN(C)S(=O)(=O)c2ccc(C)c(N(C)C)c2)n1	-11.1
CC(C)c1nc(CN(C)C(=O)c2ccc3c(c2)OCO3)cs1	-9.84
Cc1ccc(-c2cc(CNc3ncnc4c3CCNCC4)no2)cc1	1.89
Cc1cccc(N(CC(=O)c2ccccc2)C2=NCCCCC2)c1	-11.4
COc1cc(C)c(CN2CCC3(CC2)[C@H](O)C[C@@H]3OCCN)cc1C	28.1
CN(C)c1cc2c(nn1)CCN(C(=O)Cc1noc3ccccc13)C2	9.27
CCc1c(C)nn2c(O)cc(C3CCN(C(=O)c4ccn(C)n4)C3)nc12 (centres undefined)	16.4
Cc1c(C2N3C[C@]4(C(C)C)CN2C[C@](C(C)C)(C3)C4=O)[nH]c(=O)[nH]c1=O (some centres undefined)	-4.97
CC(=O)N(C)CC(=O)NCC1CCN(c2cc(Cl)ccc2C)C1 (centres undefined)	2.11
O=C(NCC1CC1)c1nc(COc2ccc3c(c2)OCO3)no1	0.603
CN1CCCC2(CCN(C(=O)CCn3cncn3)C2)C1=O (centres undefined)	-10.5
Cc1nnc(SC2CCN(c3sccc3C#N)C2=O)[nH]1 (centres undefined)	-9.17
CC(C)C(NC(=O)c1ccc(Cl)cc1Cl)C(=O)Nc1cnn(C)c1 (centres undefined)	4.14
c1cncc(-c2noc(CNc3ncnc4c3CCNCC4)n2)c1	-5.95
O=C(NCC(O)c1ccccc1Cl)c1cccc(-n2cnnn2)c1 (centres undefined)	-0.179
CN(Cc1ccccc1CN1CCCC1)C(=O)c1c(O)cccc1O	7.79
Cc1cc(C)n(CC2CN(CC(=O)NC3CCCC3)CCO2)n1 (centres undefined)	18.5
CCC(C)(CCO)NC(=O)c1ccon1 (centres undefined)	24.8
CCOCc1cccc(NC(=O)C2COCCO2)c1 (centres undefined)	-7.73
O=C1N(c2cccc(F)c2)Cc2nc(=O)[nH]n21	-7.69
COc1ccc(C(=O)NCCN2CCC(c3cccs3)CC2)cc1OC	0.337

SMILES	cytotoxicity at 70.5 h [%]
O=C(NCc1ccco1)[C@H]1CC[C@@H]2[C@@H](CCN2Cc2cccnc2)O1	-5.95
CCc1ccc(CNC2(c3ccc(F)cc3)CCOCC2)o1	-5.73
CCSC1=Nc2c(cnn2-c2ccc(Cl)cc2)C2=NCCCN12	-7.4
CCc1[nH]ncc1C(=O)N1CCCC(n2cc(C)cn2)C1 (centres undefined)	-5.59
CN1CCN(C2CCN(Cc3ccc(Cl)s3)CC2)C1=O	-0.237
CCn1cc(S(=O)(=O)N2CCC(C)CC2)c(C)n1	-14
CC(C)n1cnnc1CN(C)C(=O)C1CCCN(C2CCN(C)CC2)C1 (centres undefined)	-3.47
CS(=O)(=O)NCCC(=O)N1CCCC1c1noc(C2CC2)n1 (centres undefined)	-11.1
CC1CCN(S(=O)(=O)N2CCn3cccc3C2C)CC1 (centres undefined)	-4.61
CC(=O)Nc1ccc(CN2CCCC(c3cc4ncccc4[nH]3)C2)cc1 (centres undefined)	-5.47
CS(=O)(=O)N1CCC(Nc2ccc(C#N)c(C(F)(F)F)c2)CC1	8.33
COC(=O)N1CCCC(C(=O)N(C)C)C1 (centres undefined)	-9.72
O=C(NCC1CC1)c1n[nH]c2c1CNCC2	-10.7
Cn1ccnc1CN1CCCC(CO)(CCc2ccccc2)C1 (centres undefined)	-8.1
Cc1cnn(CC2CCCN2Cc2noc(C)n2)c1 (centres undefined)	-9.78
NC(=O)CN(C(=O)c1c[nH]c2ncccc12)C1CCCC1	3.16
CO[C@@H]1CN(c2ccccc2)S(=O)(=O)[C@@]12CCN(C(C)=O)C2	-10.5
COc1cccc(OC2CN(C(=O)c3sccc3C)C2)c1	-4.06
Cc1nc(N2CCOCC2)nc2c1CCN(C(=O)C1(C#N)CC1)CC2	-9.06
CN(Cc1nnc(-c2ccco2)o1)C(C(N)=O)c1cccc(F)c1 (centres undefined)	0.238
CCn1ncc2c1C(COCC1CC1)CN(c1ccncn1)C2 (centres undefined)	-8.04
CSCC(=O)N[C@H]1CC[C@H](Nc2nccc(-c3cccnc3)n2)C1	16.3
OCCN1CCC(F)(F)C2(CCN(c3cnccn3)C2)C1 (centres undefined)	-5.87

SMILES	cytotoxicity at 70.5 h [%]
COc1cccc(OCC2CCCN(c3cc(C(N)=O)ccn3)C2)c1 (centres undefined)	-11.8
Cc1nc(C)n(CCNC2CCN(c3ncnc4c(C)csc34)CC2)n1	-5.4
c1cc(CNc2ccc(-c3nc(C4CC4)no3)cn2)no1	-8.43
CC(C)c1nn(C)c(N2CCOCC2)c1CNCCC(=O)N(C)C	22.2
Cn1nc(C(=O)N2CCCCC2c2nc3cc(F)ccc3[nH]2)ccc1=O (centres undefined)	6.51
Cn1ccnc1CN1CCN(CCOc2ccccc2F)CC1	-11.2
Cc1nn(C)c2nc(-c3ccccn3)nc(NCCCOC(C)C)c12	-0.266
CC(C)S(=O)(=O)CC(=O)NCC(Cc1ccc(F)cc1)C(N)=O (centres undefined)	1.75
CN1CCO[C@H]2CN(S(=O)(=O)c3ccc(C#N)cc3)C[C@H]21	3.3
Cc1cc(C[C@@H]2COC[C@@H]2NC(=O)CN2CCc3ccccc3C2)on1	8.76
CCOc1c(CNCCCn2ccnc2)cc(Cl)cc1OC	-5.3
Cc1ccc(CN(CCCN2CCOCC2)Cc2cncn2C)o1	-4.09
Nc1cc2c(nn1)CCN(C(=O)c1ccccc1Oc1cccnc1)C2	-1.03
Cc1ncc(CN(C)C(=O)Nc2cccc(N3CCNC3=O)c2)s1	-3.19
CC(C)Oc1ncccc1CNC(=O)N1CCC1	-7.74
CN(C)C(=O)N1CCN(Cc2ccc3occc3c2)[C@H]2CS(=O)(=O)C[C@H]21	-3.65
Cc1c(C(=O)N2CC(=O)N(C)C2)nnn1-c1cccc2cccnc12	-3.09
COc1ccc(OCCN2CCC(c3ccnn3CCO)CC2)cc1	-5.41
CC(C)c1n[nH]c(C2CN(C(=O)CCc3cscn3)CCO2)n1 (centres undefined)	13.2
Cn1cc(CNCCC(=O)NCc2ccccc2)c(-c2cccnc2)n1	2.26
Cc1cn(CC(=O)NC2CCN(C(=O)C3CC3)CC2)c2ccccc12	-9.4
Cc1cnc(CN(C)C2CCCN(c3cccnn3)C2)cn1 (centres undefined)	-0.507
c1ccc(-c2nccc(N3CCc4c(ncn4C4CC4)C3)n2)cc1	-17.8

SMILES	cytotoxicity at 70.5 h [%]
COCc1ccccc1C(=O)N1CCCC1Cn1nc(C)cc1C (centres undefined)	0.418
Cc1nnc(SCc2cccc(F)c2)n1CC(N)=O	-125
O=C(Nc1cnc2n1CCCC2)C1CCNCC1	26.5
Cc1ccc2c(n1)N(CCn1cccn1)CCN(C(=O)CC1CC1)C2	-15.3
COCCn1cc(NC(=O)NC(C)CCc2ccccc2)ccc1=O (centres undefined)	-7.43
O=C(NC1(c2nnn(CC3CC3)n2)CCCC1)c1ccccc1	-7.63
COCc1ncn2c1CN(C(=O)c1cccc3cccnc13)CC2	19.6
CC(C)(C)N1CC(C(=O)N2CCN(CCn3cccc3)CC2)CC1=O (centres undefined)	-2.66
COCCN(CCOC)S(=O)(=O)N(C)Cc1ccncc1	19.1
Cc1nc(C2CCCNC2)cc(N(C)CCc2cn[nH]c2)n1 (centres undefined)	20.1
CNC(=O)CN1CCCC12CCN(C(=O)c1ccsc1)CC2	-6.13
CCn1cnnc1CNC(=O)c1ccc(Br)cc1F	22.3
COc1ccccc1CC1CCCN(CCC#N)C1 (centres undefined)	-13.9
c1ccc(-c2ccc3nc(C4CCN(CC5CC5)CC4)nn3c2)cc1	-6.34
Cc1nc(C)n(CC2CN(CCCOc3ccc(F)cc3)CCO2)n1 (centres undefined)	-17.9
CCC(NC(=O)c1coc(COc2cccc(F)c2F)n1)C(=O)NC (centres undefined)	-9.68
N#Cc1cccc(S(=O)(=O)NC2CCN(Cc3ccccc3)C2=O)c1 (centres undefined)	-2.45
CCOCc1ccc(NC(=O)N2CCOC3(CCC3)C2)cc1	-5.85
CCOc1ccc2[nH]c(=O)c(CN3CCCC(CO)(CO)C3)cc2c1	-4.6
CN(Cc1ccc(C#N)cc1)c1ncc(C(N)=O)cc1Cl	-7.36
O=C(c1cccc(F)c1)N1C[C@H]2CCCC(OCc3cccnc3)[C@H]2C1 (some centres undefined)	-7.83
O=S(=O)(Nc1ccon1)c1cc(Cl)cc2c1OCC2	1.46
